Experimental data from PMC11472310, “Distinctive Immune Signatures Driven by Structural Alterations in Desmuramylpeptide NOD2 Agonists” (Journal of Medicinal Chemistry, 2024).

Key:
[1] = tested on: human blood monocyte subsets; experiment: Monocyte conversion assay in PBMCs (CD14/CD16 flow cytometry); assay type: cell-based; details: 10 μM, 18 h, NT 19.5%
Description: Engagement of NOD2 has been reported to increase the levels of an anti-inflammatory monocyte subset, denoted as patrolling monocytes (CD14^–, CD16^+2), thus exerting a counterintuitive role in inflammatory processes, while concomitantly increasing the levels of total blood monocytes (released from bone marrow).[18] […] This process involves a transition from the inflammatory monocytes, typified by CD14^+CD16^–, through an intermediate subset of CD14^+CD16^+ monocytes. […] To recapitulate this phenomenon, we modified the reported procedure and employed PBMCs in lieu of isolated monocytes. Identification of human blood monocyte subsets was achieved through flow cytometry, utilizing the expression of CD14 and CD16 markers as distinguishing criteria. […] Similar to what has been reported (e.g., inactivity of murabutide),[18] also in our case not all NOD2 agonists were equally endowed with the ability to generate patrolling monocytes.
The monocyte conversion assay was conducted following previously established methods, with some adjustments.[18] Peripheral blood mononuclear cells were plated at a density of 3 × 10^6 cells/mL in 24-well plates containing 700 μL of growth medium. Cells were then treated with MDP and desmuramylpeptides (10 μM) or the corresponding vehicle (0.1% DMSO). Following an incubation period at 37 °C with 5% CO2, cells were transferred to 1.5 mL tube using phosphate-buffered saline (PBS) and scraper. The cells were blocked with human TruStain Fcx (BioLegend) and stained using antihuman CD16 antibodies/Alexa Fluor 488 (BioLegend); antihuman CD14 antibodies/PE-Cy7 (BioLegend); antihuman HLA-DR antibodies/APC-Fire750 (BioLegend) and blocked with TrueStain Monocyte Blocker. A viability dye Helix NP Blue (BioLegend) was added to the previous panel to discriminate live cells. PBMC were analyzed using an Attune NxT flow cytometer (Thermo Fisher Scientific, Waltham, MA, USA) and the FlowJo software (Tree Star, Inc., Ashland, OR, USA). Initially, lymphocytes (CD14^–, CD16^–) and NK (CD16^–, HLA-DR^–) were eliminated, after which classical, intermediate and nonclassical monocytes were specifically identified by selective gating strategy as follows: CD14^+ CD16^– (classical), CD14^+ CD16^+ (intermediate) and CD14^– CD16^+ (nonclassical). Each experiment was conducted in duplicate and repeated in three independent biological replicates.

PBMCs = experiment: Direct cytotoxic effect of compounds on PBMCs (Sytox blue); assay type: cell-based
Experimental: Additionally, PBMCs and cancer cells alone were treated with desmuramylpeptides to assess any direct cytotoxic effects on these cells.
(§1) The PBMC cytotoxicity assays utilizing K562 cells were conducted following previously established methods, with some adjustments.[82] […] Meanwhile, K562 cells were stained with CFSE (Invitrogen, Carlsbad, CA, USA), washed twice with complete medium, and then added (1 × 10^4 cells per well) to the pretreated PBMCs to achieve a final effector cell to target tumor cell ratio of 40:1. Following a 4-h coincubation period at 37 °C with 5% CO2, cells were stained with Sytox blue dead cell stain (Invitrogen) and analyzed using an Attune NxT flow cytometer (Thermo Fisher Scientific, Waltham, MA, USA) along with FlowJo software (Tree Star, Inc., Ashland, OR, USA). Cells positive for both CFSE and Sytox blue were designated as dead K562 cells. PBMCs alone and CFSE-labeled cancer cells alone were also exposed to the compounds at equivalent concentrations and stained with Sytox blue to assess any direct cytotoxic effects of the compounds on PBMCs and cancer cells separately. Each experiment was conducted in duplicate and repeated in three independent biological replicates. Statistical analysis was performed using one-way ANOVA followed by Dunnett’s multiple comparisons test.

human PBMCs = experiment: Cytokine release from peripheral blood mononuclear cells (LEGENDplex panel); assay type: cell-based; details: 18 h; for production of proinflammatory cytokines and chemokines including IL-6, IL-8 and MCP-1: 2 μM alone (no LPS)
Description: The immunomodulatory effects of the selected desmuramylpeptides were examined in human primary peripheral blood mononuclear cells (PBMCs). This diverse mixture of immune cells provided a platform to investigate the effects of these NOD2 agonists within a physiologically relevant environment, encompassing other NOD2-interacting and downstream signaling proteins. […] Given that NOD2 activation often modulates the Toll-like receptor (TLR)-induced cytokine responses, we investigated the impact of combining desmuramylpeptides with lipopolysaccharide (LPS), a well-known TLR4 agonist, on cytokine secretion.[76]−[78]
The elicited cytokine profiles thus broadly reflect the structure–activity relationships obtained in the reporter gene assays.
Peripheral blood mononuclear cells were plated at a density of 1 × 10^6 cells/mL in 48-well plates containing 500 μL of growth medium. Cells were then treated with the compounds (2 μM) or the corresponding vehicle (0.1% DMSO), both in the absence and presence of LPS (10 ng/mL). Following an 18 h incubation period at 37 °C with 5% CO2, cell-free supernatants were collected and stored at −80 °C until analysis. […] Standard curves were constructed using recombinant cytokines provided in the kit. Data analysis was performed using Biolegend software Qognit and Prism (GraphPad, San Diego, CA, USA) software. The experiments were independently replicated four times. Statistical significance was determined using two-way analysis of variance (ANOVA) followed by Tukey’s multiple comparisons test.

hNOD2 = target: T1, hNOD2 (Homo sapiens, UniProt Q9HC29); experiment: HEK-Blue NOD2 cell line reporter assay (NF-κB-inducible SEAP); assay type: cell-based; details: HEK-Blue NOD2 cells, 18 h, NF-κB transcriptional activity (SEAP); read-out: EC50 (nM), NOD2 agonistic activity
T1 construct: host or cells: HEK-Blue NOD2 cells (HEK293)
Experimental: To assess the NOD2 agonistic potential of the synthesized desmuramylpeptides at a cellular level, we employed the HEK-Blue NOD2 cell line reporter assay, a validated and commercially available method. All synthesized compounds were evaluated for their dose-dependent activities to establish their EC50 values.
The HEK-Blue NOD1 and NOD2 cell line reporter assay was generated from HEK293 cells through cotransfection of the hNOD1 or hNOD2 gene, respectively, along with an NF-κB-inducible secreted embryonic alkaline phosphatase (SEAP) reporter gene. Upon activation of NOD1 or NOD2, NF-κB triggers the production of SEAP, which can be quantitatively measured colorimetrically. […] After 18 h of incubation at 37 °C with 5% CO2, SEAP activity was measured spectrophotometrically by absorbance at 630 nm (BioTek Synergy microplate reader; Winooski, VT, USA). EC50 values were determined using Prism software (version 9; GraphPad Software, CA, USA). Each experiment was conducted in duplicate and repeated in at least two independent biological replicates.

K562 cancer cells = experiment: PBMC cytotoxicity against K562 cancer cells (flow cytometry); assay type: cell-based; details: for cytotoxicity of PBMCs against K562 cells, cotreatment with LPS (relative to negative control) / Cytotoxicity (ratio to control), + LPS: 10 μM + LPS 1 μg/mL; for cytotoxicity of PBMCs against K562 cells, cotreatment with LPS (relative to negative control) / enhancement of cytotoxicity of PBMCs against K562 cells (relative to negative control): 18 h, then 4 h coincubation; for cytotoxicity of PBMCs against K562 cells, cotreatment with LPS (relative to negative control): 40:1; for Cytotoxicity (ratio to control), + LPS / Cytotoxicity (ratio to control): Table S2; for Cytotoxicity (ratio to control) / enhancement of cytotoxicity of PBMCs against K562 cells (relative to negative control): alone: compounds 10 μM, LPS 1 μg/mL, IL-2 200 U/mL; for enhancement of cytotoxicity of PBMCs against K562 cells (relative to negative control): effector:target 40:1
Experimental: In this study, we investigated the potential of desmuramylpeptides, both alone and in combination with LPS, to enhance the cytotoxic activity of PBMCs against cancer cells employing a flow-cytometry-based cytotoxicity assay based on coincubation of preactivated PBMCs with fluorescently labeled K562 cancer cells.[82] Among the diverse subpopulations within PBMCs, natural killer (NK) cells play a pivotal role in detecting and eliminating cancer cells. NOD2-mediated NK cell activity against cancer cells arises from both direct NOD2 agonist elicited cytolytic activity of NK cells[83] and indirect activation through cytokine release by other NOD2-responsive cells, such as monocytes, which comprise approximately 10% of PBMCs; such interactions potentially reinforce the immune response.[84] […] To that end, we utilized the entire PBMC population as effector cells rather than isolated NK cells, to mimic conditions more closely resembling the in vivo environment while K562 chronic myelogenous leukemia cells were used as the target cells in a 40:1 effector to target cell ratio.[87]
as §1

BMDC/T-cell cocultures = experiment: T cell cytokine release in BMDC/T-cell cocultures; assay type: cell-based, C57BL/6 mouse; details: 10 μM, 72 h coculture
Experimental: (§2) For this study, we narrowed down the selection of suitable desmuramylpeptides even further. In order to assess the adjuvant potential of selected desmuramylpeptides with regard to their effect on DC-mediated activation of CD4^+ and CD8^+ T cells, we conducted an ex vivo antigen-presentation assay utilizing C57BL/6 mouse bone marrow-derived DCs (BMDCs). Upon stimulation with desmuramylpeptides at 10 μM, in conjunction with ovalbumin soluble protein (50 μg/mL), BMDCs were cocultured with carboxyfluorescein succinimidyl ester (CFSE)-labeled naïve ovalbumin-specific CD4^+ or CD8^+ T cells, which were isolated from splenocytes of OT II and OT I transgenic mice, respectively. […] Additionally, we investigated how the priming of T cells elicited by the tested compounds impacted the cytokine profiles secreted in BMDC/T-cell cocultures.
Following 72 h of coincubation with BMDCs (pretreated with desmuramylpeptides [10 μM] and washed), supernatants from CD4^+ and CD8^+ T cells were harvested as previously described. […] Standard curves were constructed using recombinant cytokines provided in the kit. Data analysis was conducted using FlowJo (Tree Star, Inc., Ashland, OR, USA) and Prism (GraphPad, San Diego, CA, USA) software. Each experiment was performed in duplicate and replicated in two independent biological runs.

[2] = tested on: CD4+ T cells cocultured with BMDCs; experiment: BMDC antigen presentation to ovalbumin-specific CD4+ T cells (OT II); assay type: cell-based, C57BL/6 mouse; details: BMDCs pretreated 10 μM + ovalbumin 50 μg/mL 18 h, coculture 72 h; OVA-treated cells 63.8%
Experimental: as §2
(§3) CD4^+ and CD8^+ T cells were isolated from splenocytes of OT II and OT I transgenic mice using CD4^+ and CD8^+ T cell isolation kits (Miltenyi Biotec, Germany) following the manufacturer’s instructions. The purified T cells were labeled with CFSE (Invitrogen, Carlsbad, CA, USA) and subsequently washed. Next, 5 × 10^4 T cells were combined with 1 × 10^4 BMDCs/well (pretreated with desmuramylpeptides at 10 μM and 50 μg/mL ovalbumin [Invivogen, San Diego, CA, USA] for 18 h and then washed). Following a 72-h incubation period at 37 °C with 5% CO2, supernatants were harvested and stored at −80 °C for cytokine analysis. The cells were then stained with Fixable viability dye eFluor 780 (eBioscience, Thermo Fisher Scientific, MA, USA), anti-Thy1.2-PE-Cy7 antibodies (Biolegend, San Diego, CA, USA), anti-CD8-eFluor450 antibodies (eBioscience), anti-CD4-eFluor450 antibodies (eBioscience), and anti-CD25-APC antibodies (Biolegend) before analysis using a Beckman Coulter Cytoflex S flow cytometer (CA, USA) and FlowJo software (Tree Star, Inc., Ashland, OR, USA). Live Thy1.2+/CD4+ and Thy1.2+/CD8+ cells were assessed for CFSE dilution and CD25 expression. Each experiment was performed in duplicate and repeated in two independent biological replicates. Statistical significance was determined using paired t tests.

[3] = tested on: CD8+ T cells cocultured with BMDCs; experiment: BMDC antigen cross-presentation to ovalbumin-specific CD8+ T cells (OT I); assay type: cell-based, C57BL/6 mouse; details: BMDCs pretreated 10 μM + ovalbumin 50 μg/mL 18 h, coculture 72 h; OVA-treated cells 23.3%
Experimental: as §2
as §3, with “Each experiment was performed in duplicate and repeated in two independent biological replicates.” left out

[4] = Table S2, alone: compounds 10 μM, LPS 1 μg/mL, IL-2 200 U/mL

T1 sequence (Q9HC29 whole entry): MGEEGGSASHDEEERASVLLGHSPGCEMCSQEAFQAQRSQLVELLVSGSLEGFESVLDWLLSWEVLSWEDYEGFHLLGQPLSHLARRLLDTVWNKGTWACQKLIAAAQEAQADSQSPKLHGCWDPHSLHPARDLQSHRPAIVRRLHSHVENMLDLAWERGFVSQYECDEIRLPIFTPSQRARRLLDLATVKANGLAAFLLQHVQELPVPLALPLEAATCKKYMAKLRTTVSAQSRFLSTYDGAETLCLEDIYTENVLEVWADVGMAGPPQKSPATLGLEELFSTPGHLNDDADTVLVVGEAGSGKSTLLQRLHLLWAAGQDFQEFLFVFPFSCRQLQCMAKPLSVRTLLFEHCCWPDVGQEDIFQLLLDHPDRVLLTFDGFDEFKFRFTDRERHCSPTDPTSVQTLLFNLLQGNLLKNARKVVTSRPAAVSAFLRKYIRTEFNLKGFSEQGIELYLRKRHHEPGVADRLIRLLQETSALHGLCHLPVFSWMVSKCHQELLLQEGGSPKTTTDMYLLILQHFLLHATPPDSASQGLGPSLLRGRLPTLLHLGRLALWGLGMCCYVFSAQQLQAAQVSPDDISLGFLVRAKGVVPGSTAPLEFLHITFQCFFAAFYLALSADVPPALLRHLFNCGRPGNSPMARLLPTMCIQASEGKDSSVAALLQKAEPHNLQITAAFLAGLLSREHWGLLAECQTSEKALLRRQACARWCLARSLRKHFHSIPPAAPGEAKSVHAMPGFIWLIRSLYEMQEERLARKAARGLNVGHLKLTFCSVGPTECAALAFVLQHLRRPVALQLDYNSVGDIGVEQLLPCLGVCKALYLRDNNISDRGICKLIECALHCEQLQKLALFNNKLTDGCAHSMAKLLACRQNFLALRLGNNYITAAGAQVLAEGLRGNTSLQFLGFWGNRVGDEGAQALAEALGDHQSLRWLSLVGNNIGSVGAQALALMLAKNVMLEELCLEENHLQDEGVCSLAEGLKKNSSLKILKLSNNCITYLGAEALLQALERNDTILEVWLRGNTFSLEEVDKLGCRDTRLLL

Row | Molecule | levels of nonclassical monocytes [1] [%] | Percent of dead PBMCs (PBMCs; human, 18 h, 10 μM) | Percent of dead PBMCs, + LPS (PBMCs; human, 18 h, 10 μM) | levels of LPS-induced IL-10 (human PBMCs; 2 μM + LPS 10 ng/mL) | production of proinflammatory cytokines and chemokines including IL-6, IL-8 and MCP-1 (human PBMCs) | EC50 (hNOD2) [nM] | cytotoxicity of PBMCs against K562 cells, cotreatment with LPS (relative to negative control) (K562 cancer cells) [fold] | Cytotoxicity (ratio to control), + LPS (K562 cancer cells) | Cytotoxicity (ratio to control) (K562 cancer cells) | enhancement of cytotoxicity of PBMCs against K562 cells (relative to negative control) (K562 cancer cells) | Percent of dead PBMCs, + LPS (PBMCs; Table S2, 10 μM + LPS 1 μg/mL) | Percent of dead PBMCs (PBMCs; [4]) | amounts of IL-1β, IL-6, IL-10, TNF-α and IFN-γ compared to the MDP/LPS combination (human PBMCs; 2 μM + LPS 10 ng/mL) | levels of secreted MCP-1 compared to the MDP/LPS combination (human PBMCs; 2 μM + LPS 10 ng/mL) | levels of IL-6 and TNF-α secreted by CD4+ T cells (BMDC/T-cell cocultures) | fraction of activated and proliferating CD4+ T-cells (CD25+, CFSE low) [2] [%] | fraction of activated and proliferating CD8+ T-cells (CD25+, CFSE low) [3] [%]
1 | CC(=O)N[C@H]1C(O)O[C@H](CO)[C@@H](O)[C@@H]1O[C@H](C)C(=O)N[C@@H](C)C(=O)N[C@H](CCC(=O)O)C(N)=O (mixture of isomers) [MDP, muramyl dipeptide, reference compound] | 31.5 | 1.11% ± 0.15% | 7.95% ± 0.95% | amplified | minor increases | 205 ± 64 | 2.71 | 2.71 ± 0.16 | 1.17 ± 0.07 | no activity | – | – | – | – | – | – | –
2 | CCOC(=O)[C@@H](CCC(=O)NC12C[C@H]3C[C@@H](C1)C[C@@H](C2)C3)NC(=O)[C@@H](NC(=O)CNC(=O)/C=C/c1ccc(O)c(OC)c1)C(C)C [Compound 28, Ethyl N^5-((3S,5S,7S)-Adamantan-1-yl)-N^2-((E)-3-(4-hydroxy-3-methoxyphenyl)acryloyl)glycyl-L-valyl-D-glutaminate] | – | – | – | opposite | smaller increases | > 10000 | 2.19 | 2.19 ± 0.07 | 0.91 ± 0.02 | devoid of the capacity to induce cytotoxicity | 10.44% ± 0.63% | 0.99% ± 0.21% | lesser amounts | on par | slightly increased | 67.0 | –
3 | lipopolysaccharide [LPS, reference compound] | – | – | – | – | – | – | – | – | 1.8 ± 0.08 | 1.80 fold | – | 4.16% ± 0.47 | – | – | – | 80.4 | 55.6
